This note sets out measurements from ChEMBL document CHEMBL1152006, “Pharmacological profile and chemical synthesis of SR 48968, a non-peptide antagonist of the neurokinin A (NK2) receptor” (Bioorg Med Chem Lett, 1993).

The target in assay [1] is T1, Substance-K receptor (Rattus norvegicus, UniProt P16610).
T1 sequence (P16610 whole entry): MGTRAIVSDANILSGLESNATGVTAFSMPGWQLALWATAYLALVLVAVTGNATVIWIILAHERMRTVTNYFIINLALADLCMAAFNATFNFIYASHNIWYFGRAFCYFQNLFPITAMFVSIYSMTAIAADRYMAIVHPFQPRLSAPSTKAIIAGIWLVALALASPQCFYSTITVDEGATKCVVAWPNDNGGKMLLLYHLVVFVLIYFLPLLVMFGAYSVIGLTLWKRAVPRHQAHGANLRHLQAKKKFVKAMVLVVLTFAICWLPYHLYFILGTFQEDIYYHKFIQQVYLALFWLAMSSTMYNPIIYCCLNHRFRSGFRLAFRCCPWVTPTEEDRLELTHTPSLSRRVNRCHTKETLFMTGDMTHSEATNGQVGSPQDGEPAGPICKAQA
Put plainly: Inhibition of [125I]NKA binding to neurokinin NK2 receptor from rat duodenum membranes. Type of assay: cell membranes, Membrane.

Assay [2] addresses T1, Substance-K receptor. Put plainly: The compound was evaluated for the inhibition of [125I]NKA binding to Tachykinin receptor 2 from rat duodenum membranes. Type of assay: cell membranes, Membrane.
In assay [3] the test system is Cavia porcellus. Put plainly: The compound was evaluated for the inhibition of bronchoconstriction in guinea pig at intravenous dose of 0.2 mg/Kg. Format: functional. The settings on record: Lung.
In assay [4] the test system is Cavia porcellus. Put plainly: The compound was evaluated for the inhibition of bronchoconstriction in guinea pig at intraduodenal dose of 0.5 mg/Kg. Format: functional. The settings on record: Lung.
For the next assay, the species on record is Oryctolagus cuniculus. Put plainly: The compound was evaluated for the inhibition of [Nle10]-NKA(4-10)-induced contraction of the rabbit pulmonary artery. The settings on record: read-out: pA2 (converted). Type of assay: functional.
For assay [5], the system named is Cavia porcellus. Put plainly: The compound was evaluated for its effect on bronchoconstriction induced by acetylcholine(60 ug/kg, i.v.) in the guinea pig 60 min after administration. Type of assay: functional.
Assay [6] deals with Cavia porcellus. Put plainly: Tested in vivo to antagonize the NKA-induced bronchoconstriction in guinea pig by intraduodenal route. The settings on record: read-out: ID50 (the source's name). Format: functional.
In assay [7] the test system is Cavia porcellus. Put plainly: The compound was evaluated for its effect on bronchoconstriction induced by [Sar9,Met(O2)11]-SP(5 ug/kg, i.v.) in the guinea pig 15 min after administration. Format: functional.
Assay [8] has as its system Cavia porcellus. Put plainly: The compound was evaluated for its effect on bronchoconstriction induced by serotonin(10 ug/kg, i.v.) in the guinea pig 60 min after administration. Format: functional.
For assay [9], the system named is Cavia porcellus. Put plainly: The compound was evaluated for its effect on bronchoconstriction induced by serotonin(10 ug/kg, i.v.) in the guinea pig 15 min after administration. Format: functional.
Assay [10] has as its target T2, Substance-K receptor (Mesocricetus auratus, UniProt P51144).
T2 sequence (P51144 whole entry): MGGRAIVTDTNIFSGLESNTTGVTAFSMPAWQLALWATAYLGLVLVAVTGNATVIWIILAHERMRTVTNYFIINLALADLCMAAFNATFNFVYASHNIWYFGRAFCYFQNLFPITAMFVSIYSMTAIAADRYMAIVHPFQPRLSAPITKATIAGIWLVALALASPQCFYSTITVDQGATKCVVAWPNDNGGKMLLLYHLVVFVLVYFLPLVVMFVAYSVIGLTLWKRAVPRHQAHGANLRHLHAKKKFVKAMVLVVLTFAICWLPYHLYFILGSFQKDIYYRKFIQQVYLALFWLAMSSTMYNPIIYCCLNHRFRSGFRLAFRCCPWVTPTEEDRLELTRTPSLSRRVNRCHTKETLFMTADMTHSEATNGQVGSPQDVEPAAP
Put plainly: The compound was evaluated for the inhibition of [125I]NKA binding to neurokinin NK2 receptor from hamster urinary bladder membranes.

Assay [11] has as its system Cavia porcellus. Put plainly: Tested in vivo to antagonize the NKA-induced bronchoconstriction in guinea pig intravenously. Type of assay: functional. To be noted: iv, read-out: ID50 (the source's name).
Assay [12] concerns Cavia porcellus. Put plainly: The compound was evaluated for its effect on bronchoconstriction induced by histamine(10 ug/kg, i.v.) in the guinea pig 15 min after administration. Format: functional.
In assay [13] the test system is Cavia porcellus. Put plainly: The compound was evaluated for its effect on bronchoconstriction induced by [Sar9,Met(O2)11]-SP(5 ug/kg, i.v.) in the guinea pig 60 min after administration. Type of assay: functional.
The subject of assay [14] is Cavia porcellus. Put plainly: The compound was evaluated for its effect on bronchoconstriction induced by acetylcholine(60 ug/kg, i.v.) in the guinea pig 15 min after administration. Format: functional.
Assay [15] deals with Cavia porcellus. Put plainly: The compound was evaluated for its effect on bronchoconstriction induced by histamine(10 ug/kg, i.v.) in the guinea pig 60 min after administration. Format: functional.

With `CN(CC(CCN1CCC(c2ccccc2)CC1)c1ccc(Cl)c(Cl)c1)C(=O)c1ccccc1` (stereo not drawn), the Ki on Substance-K receptor [1] was over 100 nM.
Consider `CC(=O)NC1(c2ccccc2)CCN(CC[C@H](CN(C)C(=O)c2ccccc2)c2ccc(Cl)c(Cl)c2)CC1` [SAREDUTANT], for which the Ki at Substance-K receptor [2] was 945 nM.
As to `CC(=O)NCC1(c2ccccc2)CCN(CCC(CN(C)C(=O)c2ccccc2)c2ccc(Cl)c(Cl)c2)CC1` (stereo not drawn), the Ki on Substance-K receptor [1] was found to be 23 nM.
Molecule `CC(=O)OC1(c2ccccc2)CCN(CCC(CN(C)C(=O)c2ccccc2)c2ccc(Cl)c(Cl)c2)CC1` (stereo not drawn) registered a Ki at Substance-K receptor [1] of 0.3 nM. Also, in the assay with Cavia porcellus [3], the inhibition in vivo at 0.2 mg/kg was 98%. Moreover, the inhibition in vivo at 0.5 mg/kg in the assay with Cavia porcellus [4] amounted to 36%.
For the molecule `CN(CC(CCN1CCC(O)(c2ccccc2)CC1)c1ccc(Cl)c(Cl)c1)C(=O)c1cccs1` (stereo not drawn), in the assay listed under Oryctolagus cuniculus, the Kb is 0.0676 nM. This molecule had a Ki at Substance-K receptor [1] of 1.4 nM. Besides, in the assay on Cavia porcellus [3], 0.2 mg/kg produced 93% inhibition in vivo. The same molecule gave an inhibition in vivo at 0.5 mg/kg with Cavia porcellus [4] of 73%.
`CCN(CC(CCN1CCC(OC(C)=O)(c2ccccc2)CC1)c1ccc(Cl)c(Cl)c1)C(=O)c1cccs1` (stereo not drawn): in the assay listed under Oryctolagus cuniculus, the Kb is 0.447 nM. This molecule registered a Ki on Substance-K receptor [1] of 0.3 nM. In addition, the inhibition in vivo at 0.2 mg/kg in the assay on Cavia porcellus [3] was 97%. Besides, the inhibition in vivo at 0.5 mg/kg with Cavia porcellus [4] is 34%.
In the case of `CC(=O)NC1(c2ccccc2)CCN(CCC(CN(C)C(=O)c2ccccc2)c2ccc(Cl)c(Cl)c2)CC1` (single isomer, unassigned) [SAREDUTANT], the Kb in the assay listed under Oryctolagus cuniculus was 0.0331 nM. The Ki at Substance-K receptor [1] came to 0.5 nM; on Substance-K receptor [10], 1.2 nM. Moreover, the Volume of air with Cavia porcellus [5] is 3.2 mL; in the assay with Cavia porcellus [7], 4.4 mL; with Cavia porcellus [8], 4.7 mL; in the assay on Cavia porcellus [9], 4.5 mL; in the assay with Cavia porcellus [12], 3.2 mL; with Cavia porcellus [13], 4.2 mL. Moreover, the Volume of air in the assay on Cavia porcellus [14] worked out at 2.8 mL; with Cavia porcellus [15] it was 3.9 mL. The figures for the ED50 in the assay with Cavia porcellus [6] and in the assay on Cavia porcellus [11] were 0.35 mg/kg and 0.037 mg/kg, respectively. In the assay with Cavia porcellus [3], this molecule displayed an inhibition in vivo at 0.2 mg/kg of 100%. This molecule returned an inhibition in vivo at 0.5 mg/kg with Cavia porcellus [4] of 100%.
Regarding `CN(CC(CCN1CCC(O)(c2ccccc2)CC1)c1ccc(Cl)c(Cl)c1)C(=O)c1ccsc1` (stereo not drawn), the Kb in the assay listed under Oryctolagus cuniculus is 0.229 nM. On Substance-K receptor [1], the Ki worked out at 1 nM. This molecule also displayed an inhibition in vivo at 0.2 mg/kg in the assay with Cavia porcellus [3] of 77%.
On the same counts, the results for `CN(CC(CCN1CCC(O)(c2ccccc2)CC1)c1ccc(Cl)c(Cl)c1)C(=O)c1cccc2ccccc12` (stereo not drawn) are 2.34 nM, 1.5 nM and 0%.
The corresponding values for `CN(CC(CCN1CCC(O)(c2ccccc2)CC1)c1ccc(Cl)c(Cl)c1)C(=O)c1ccccc1` (stereo not drawn) are 0.182 nM, 1 nM and 93%.
`CC(=O)NC1(c2ccccc2)CCN(CCC(CNC(=O)c2ccccc2)c2ccc(Cl)c(Cl)c2)CC1` (stereo not drawn): the Ki on Substance-K receptor [1] is over 100 nM.
Same read-out and setting: the result for `CN(CC(CCN1CCC(CO)(c2ccccc2)CC1)c1ccc(Cl)c(Cl)c1)C(=O)c1ccccc1` (stereo not drawn) reads 50 nM.
Turning to `CCOC1(c2ccccc2)CCN(CCC(CN(C)C(=O)c2ccccc2)c2ccc(Cl)c(Cl)c2)CC1` (stereo not drawn), the Kb in the assay listed under Oryctolagus cuniculus is 0.17 nM. For the same molecule, the Ki on Substance-K receptor [1] came to 0.9 nM. This molecule also returned an inhibition in vivo at 0.2 mg/kg with Cavia porcellus [3] of 40%.

As usually defined, the Ki is the dissociation constant of the complex between target and ligand, obtained from inhibition or displacement. The low end stands for tighter binding, the high end for weaker binding. For orientation: inhibition in vivo means the relative decrease from the control value, in per cent.
